Test results as given in patent EP0004835A1, “Ethanolamine compounds, processes for their preparation, pharmaceutical preparations containing them and their medicinal use” (priority 1978, dated 1979).
Values joined by “and” are separate entries in the source; they are usually repeats but may differ in a detail not shown here. Identical values can stand only once. Counter-ions that a name gives are not always drawn. Like-named read-outs stand apart in the source and are kept apart here.

Assays:
heart frequency = experiment: Heart stimulating effect in anaesthetized cat (simultaneous recording); format: in vivo
Description: (§1) A. Simultaneous recording of bronchospasmolytic effect, tremorogenic effect and heart stimulating effect
(§2) The method used is described in detail by 0 A T Olsson, Acta pharmacol et toxicol 34, 106-114 (1974).
(§3) Cats weighing 2.5-3.5 kg are anaesthetized with pento- barbital (mebumalum NFN) at first by an intraperitoneal injection (30 mg/kg) and afterwards by continuous intravenous infusion to keep the level of anaesthesia constant during the experiment.
Arterial blood pressure is measured with a Statham transducer from a cannulated carotid artery. Heart frequency is monitored by means of a tachometer set to trigger off the R-wave of the electro-cardiogram.
(§4) The bronchospasmolytic effect is measured as the dose, calculated in moles per kg bodyweight of the test animal, which gives 30 % decrease of the histamine induced bronchospasm. […] The heart stimulating effect is measured as the dose, calculated in moles per kg bodyweight of the test animal, which gives 25 % increase in the heart frequency.

[1] = system: electrically induced contractions of the soleus muscle; experiment: Tremorogenic effect in anaesthetized cat (soleus muscle, simultaneous recording); format: in vivo; conditions: narcotized cat, i.v., based on molar dose giving 30 % decrease of electrically induced soleus contractions, terbutaline = 1
Description: as §1
(§5) The bronchospasmolytic effect and the tremorogenic effect were measured simultaneously in anaesthetized cat.
as §2, §3
The soleus muscle in the hind limb, consisting mainly a -slow contracting fibres, is prepared essentially according to Bowman & Zaimis, J Physiol 144, 92-107 (1958). The muscle is enclosed in a chamber made of a rubbercovered plastic "hair-curler". The entire leg is wrapped in metal foil covered with plastic to keep the temperature constant at 35-36°C (controlled by thermo couples in the.leg). The cat is placed on its back on a thermostatically controlled operation table and the right hind limb fixed, special care being taken not to impede the blood flow.The tendon is cut and attached to a Grass strain gauge (FT 10C). The isometric tension of the muscle is calibrated to 50 g (resting tension) and 500 g (maximal tension). A plexiglas shielded bipolar Pt-electrode is placed on the tibialis nerve, near the soleus. The incomplete tetanic contractions of the muscle are elicited by a square wave pulse stimulation of the nerve by the use of a Grass S48 stimulator. The pulse duration is 0.05 msec, with frequencies selected in the range 8-12 Hz and the strength between 5-8. volts. The stimulation occurs for 1.8 sec every 20 sec.
as §4

[2] = system: histamine induced bronchoconstriction; experiment: Onset and duration of bronchospasmolytic activity after oral administration, histamine aerosol, unanaesthetized guinea-pigs; format: in vivo; conditions: result in words
Description: These compounds have the structural formulas [drawing 91] (Compound of Example 1) [drawing 92] (Compound of Example 4) The bronchospasmolytic effect was tested as the inhibitory effect on histamine induced bronchoconstriction in unanaesthetized guinea-pigs. The test animals were exposed to a histamine mist generated by a Roth-Petersen nebulizer from a solution of 0.3 mg/ml of histamine-chloride. Guinea-pigs, strain Dunkin-Hartley, both sexes, 160-230 g were used. Saline treated control animals start a forced and irregular breathing after less than 4 minutes exposure to the aerosol. Drug-treated animals sustaining the histamine aerosol 4 minutes without a breathing influence are regarded as protected. The animals were starved for about 15 hours with water ad libitum before the test compound was administered by a stomach tube. Each of the test substances was given in an amount of 4.10^-6 mole/kg bodyweight. Groups of 8-10 animals were tested in the aerosol at 7, 15, 30, 60 and 120 minutes after administration of the test substance. The percentage of the animals which could withstand the aerosol for 4 minutes and for 10 minutes was determined.

[3] = system: histamine induced bronchospasm; experiment: Bronchospasmolytic effect in anaesthetized cat (simultaneous recording); format: in vivo; conditions: narcotized cat, i.v. (brachial vein), based on molar dose giving 30 % decrease of histamine induced bronchospasm, terbutaline = 1
Description: as §1, §5, §2, §3
The trachea is cannulated and the lungs inflated with room air by means of a constant volume Braun-respirator. The frequency is 15-20 per min and the tidal volume 8-10 ml per kg, or just sufficient to suppress spontaneous breathing movements and to give about 150 ml/kg/min. The change in tidal volume from administered constricting agents is measured as the amount of air overflow from the delivery of a constant volume to a fixed respiration. The pressure is determined by a water (60-70 mm) pressure threshold and respiratory overflow determined by means of a Grass-volumetric pressure transducer PT 5A. Bronchial tone is increased by inhalation of a histamine aerosol generated in a Roth-Petersen nebulizer from a solution containing 0.1-0.3 mg/ml of histamine and made up to 5 % by glycerol. The nebulizer is connected to the inlet of the respirator when bronchospasm is to be produced. When the respiratory overflow has reached an even level, .the compound to be tested for bronchorealxing activity is injected into the brachial vein.
as §4

[4] = system: histamine induced bronchoconstriction; experiment: Bronchospasmolytic activity at oral and subcutaneous administration, histamine aerosol, unanaesthetized guinea-pigs; format: in vivo; conditions: for ED50: Cavia porcellus, read-out: Dose protecting 50 % of the test animals against the histamine aerosol during more than 4 minutes (ED50)
Description: .The bronchospasmolytic activity of a compound of the invention at oral administration was tested on guinea-pigs. The compound according to Example 1 having the code designation D 2343, was tested. Terbutaline was used as reference substance.
The bronchospasmolytic effect was tested as the inhibitory effect on histamine induced bronchoconstriction in unanaesthetized guinea-pigs.
The test animals were exposed to a histamine mist generated by a Roth-Petersen nebulizer from a solution of 0.3 mg/ml of histamine-chloride.
Guinea-pigs, strain Dunkin-Hartle.y, both sexes, 190-250 g were used. Saline treated control animals start a forced and irregular breathing after less than 4 minutes exposure to the aerosol. Drug-treated animals sustaining the histamine aerosol 4 minutes without a breathing influence are regarded as protected. In the study with oral administration, the animals were starved for about 15 hours with water ad libitum before D 2343 or terbutaline was administered by a stomach tube.
Each compound was administered to 30-40 animals.
In the investigation with oral administration the time from drug administration to exposure of the animal to histamine was 30 minutes.
The ED50 doses are calculated on molar basis in moles per kg bodyweight of the test animal.

rat uterus = rat uterus (Rattus norvegicus, UniProt P10608); experiment: Inhibitory activity on oxytocin and carbachol induced contractions of rat uterus in vitro; design: species or system Sprague-Dawley rats; conditions: result in words
Description: 'The uterus relaxing effect of the compounds of the invention was tested. Terbutaline was used as reference substance.
Female Sprague-Dawley rats, 150-200 g, were used. An oestrogen steroid (Estradurin, Leo), 0.25 mg/100 g, was administered s.c. 4-6 days before the experiments to bring the animals in oesterus.
The uterus horn were cut open longitudinally, mounted in organ baths in Locke solution at 33°C and gassed with carbogen. The contraction of the preparation was producted by oxytocin (Partocon, Ferring) or carbachol and given to the bath 3 min after administration of the test substance in a dose producing 70-80 % of the maximum contraction or 0.005-0.02 IE/ml of oxytocin and 0.2-0.6 µg/ml of carbacho- line chloride. The inhibitory effect produced by the test substance was eliminated by propranolol (1 µg/ml or 0.4x10^-5 M given to the bath 15 minutes before the drugs).
The tension changes were recorded isometrically (transducer FP03 and Grass polygraph P5).
The results are given as the concentration of the test compound which reduces the contraction induced by oxytocin and carbachol, respectively, by 50 % (EC 50).
Oxytocinseries: 10 preparations from 6 animals Carbacholseries: 9 preparations from 5 animals

Acute toxicity in mice = conditions: mouse, in vivo
Description: The acute toxicity of the compound D 2343 of the invention was investigated.
Male mice (NMRI) 20-25 g were used. The test compound was administered intravenously (by tail vein), subcutaneously. intraperitoneally and orally (by stomach tube to starved animals) in 6 dose levels in log- sequence with 10 or more animals tested at each dose level to determine the LD50'
After toxic doses the death followed within the first hour after i.v., s.c. and i.p. and during the first three hours after p.o. administration. No further mortality was noted during the following 5 days the animals were observed.

a-receptor = a-receptor blocking activity, noradrenaline-induced contraction of rabbit aortic strips; design: species or system Albino rabbits; conditions: for IC50: compound added 10 minutes before noradrenaline, called EC 50, 6 preparations from 3 animals, read-out: Concentration inhibiting 50 % noradrenaline-induced contraction
Text: The a-receptor blocking activity of two compounds of the invention was investigated. This effect is relevant in the treatment of asthma. It has been shown, e.g. by Nousiainen et al, Pharmacology 15, 469-477 (1977), that certain compounds having a-blocking effect may potentiate the effects of S-receptor-stimulating agents such as terbutaline.
In the test, the a-receptor blocking substance thymoxamine was used as reference.
Albino rabbits of both sexes (2-3 kg) were used. About 5 cm of the aorta was dissected out as near the arch as possible, transferred to a dish with Krebs solution and cut spirally. Usually 3 preparations were received from the dissected piece of vessel. Each strip was mounted in an organ bath in Krebs solution of 37°C and aerated with carbogen. The load on the preparation was 2 g and the tension changes recorded isometrically on Grass transducer FR03 and polygraph P5.
Noradrenaline, which is a strong a-receptor stimulating agent, exerts a contracting effect on the aortic strips when added to the bath. The a-receptor blocking effect of the test compound is measured by adding the test compound to the organ bath before adding nor-adrenaline.
Noradrenaline solution with a concentration producing 70-80 % of maximal contraction (0.03-0.06 µg/ml) was used. The test compound was added to the organ bath 10 minutes before the addition of noradrenaline.
The results are measured as the concentration of the test compound which inhibits the noradrenaline-induced contraction by 50 % (EC 50).
The EC 50 values are based on tests on 6 preparations obtained from 3 animals.

[5] = 0.5 h, Oral administration (stomach tube, starved), 30 minutes before histamine
[6] = sc, 0.25 h, Subcutaneous administration, 15 minutes before histamine challenge

rat uterus, sequence (P10608 whole entry): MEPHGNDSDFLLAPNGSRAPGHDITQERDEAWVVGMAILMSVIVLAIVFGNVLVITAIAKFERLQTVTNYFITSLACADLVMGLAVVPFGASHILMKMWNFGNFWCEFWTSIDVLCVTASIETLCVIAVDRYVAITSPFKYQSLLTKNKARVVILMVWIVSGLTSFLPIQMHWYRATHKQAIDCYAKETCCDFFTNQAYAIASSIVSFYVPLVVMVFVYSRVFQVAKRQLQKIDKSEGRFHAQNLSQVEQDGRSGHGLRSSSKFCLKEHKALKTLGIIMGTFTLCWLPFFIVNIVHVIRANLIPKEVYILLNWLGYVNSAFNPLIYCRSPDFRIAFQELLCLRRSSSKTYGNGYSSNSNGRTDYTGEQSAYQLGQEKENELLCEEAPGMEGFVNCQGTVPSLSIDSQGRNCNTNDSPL

With `COc1ccccc1CCC(C)(C)NCC(O)c1ccc(OC(=O)C(C)(C)C)cc1` (centres unmarked) [D 2367, 1-[4-Pivaloyloxy-phenyl]-2-[1,1-dimethyl-3-(2-methoxyphenyl)propylaminolethanol sulfate] the “Heart stimulating effect in relation to the heart stimulating effect of terbutaline” value (shortened to “Heart stimulating effect in relation”) (heart frequency; cat, in vivo, iv) was 0.16±0.05, the “Tremorogenic effect in relation to the tremorogenic effect of terbutaline” value (“Tremorogenic effect in relation” below) [1] was 0.23 ±0.07 and the “duration of bronchospasmolytic activity” value [2] was “considerably prolonged compared to the duration of the compound of example 1”. For the same compound, the “Bronchospasmolytic effect in relation to the bronchospasmolytic effect of terbutaline” value (from here on “Bronchospasmolytic effect in relation”) [3] was 0.28±0.07.

For `COc1ccccc1CCC(C)(C)NCC(O)c1ccc(O)cc1.Cl` (centres unmarked) [D 2343, 1-(4-hydroxyphenyl)--2-[1,1-dimethyl-3-(2-methoxyphenyl)propylamino]-ethanol hydrochloride], the ED50 [4, 5] was 2.51 ± 0.39 µmol/kg, the ED50 [4, 6] was 0.34 ± 0.06 µmol/kg and the “times more active than terbutaline” value ([4]; oral administration) was 2.1 times. For the same compound, the “times more active than terbutaline” value ([4]; subcutaneous administration) was 2.7 times, the “potency as uterus relaxing agent compared with terbutaline” value (rat uterus) was “more potent as uterus relaxing agent than terbutaline” and the LD50 (Acute toxicity in mice; ip, male mice (NMRI)) was 45 mg/kg. For the same compound, the LD50 (Acute toxicity in mice; ip, male mice (NMRI), M = 378.5) was 120 µmol/kg, the LD50 (Acute toxicity in mice; iv, male mice (NMRI)) was 13 mg/kg and the LD50 (Acute toxicity in mice; iv, male mice (NMRI), M = 378.5) was 35 µmol/kg. The LD50 (Acute toxicity in mice; po, starved male mice (NMRI)) was 170 mg/kg, the LD50 (Acute toxicity in mice; po, starved male mice (NMRI), M = 378.5) was 450 µmol/kg and the LD50 (Acute toxicity in mice; sc, male mice (NMRI)) was 50 mg/kg. The LD50 (Acute toxicity in mice; sc, male mice (NMRI), M = 378.5) was 130 µmol/kg, the “Tremorogenic effect in relation” value ([1]; hydrochloride) was 0.5 and 0.5 ±0.1 and the “Bronchospasmolytic effect in relation” value ([3]; hydrochloride) was 2.9 ±0.6. The IC50 (a-receptor; rabbit aortic strips) was 600 ± 200 nM, the “a-receptor blocking activity compared with thymoxamine” value (a-receptor; rabbit aortic strips, result in words) was “higher than the a-blocking effect of thymoxamine” and the “a-blocking effect in relation to β-stimulating effect” value (a-receptor; result in words, no data shown) was “obtained in the same dose range as its β-stimulating effect”.

With `CCOc1ccccc1CCC(C)(C)NCC(O)c1ccc(O)cc1` (centres unmarked) [D 2388, 1-(4-hydroxyphenyl)-2-[1,1--dimethyl-3-(2-ethoxyphenyl)propylamino]-ethanol hydrochloride] the “Heart stimulating effect in relation” value (heart frequency; cat, in vivo, iv) was 1, the “Tremorogenic effect in relation” value [1] was 0.8±0.2 and the “Bronchospasmolytic effect in relation” value [3] was 1.4±0.2.

With `COc1ccccc1CC(C)(C)NCC(O)c1ccc(O)cc1` (centres unmarked) [[drawing]] the IC50 (a-receptor; rabbit aortic strips) was 500 ± 200 nM.

In the case of `COc1ccccc1CC(C)(C)NCC(O)c1ccc(O)cc1` (centres unmarked) [D 2331, 1-(4-Hydroxyphenyl)-2-[1,1-dimethyl--2-(2-methoxyphenyl)ethylaminol]ethanol sulfate], the “Heart stimulating effect in relation” value (heart frequency; narcotized cat, i.v., based on molar dose giving 25 % increase in heart frequency, terbutaline = 1) is reported as 0.02, the “Tremorogenic effect in relation” value [1] is reported as 0.011±0.004 and the “Bronchospasmolytic effect in relation” value [3] is reported as 0.12±0.03.

In the case of `CC(=O)Oc1cc(C(C)C)c(OCCN(C)C)cc1C` [Thymoxamine, thymoxamine, reference compound], the IC50 (a-receptor; rabbit aortic strips) is reported as 1500 ± 400 nM.

With `CC(C)(C)NCC(O)c1cc(O)cc(O)c1` (centres unmarked) [Terbutaline, terbutaline, reference compound] the ED50 [4, 5] was 5.28 ± 0.86 µmol/kg, the ED50 [4, 6] was 0.93 ± 0.14 µmol/kg and the “Heart stimulating effect in relation” value (heart frequency; cat, in vivo, iv) was 1. For the same compound, the “Tremorogenic effect in relation” value [1] was 1 and the “Bronchospasmolytic effect in relation” value [3] was 1.

With `COc1ccccc1CCC(C)(C)NCC(O)c1ccc(OC(=O)c2ccc(C)cc2)cc1` (centres unmarked) [D 2375, 1-[4-(4-Methylbenzoyloxy)--phenyl]-2-[1,1-dimethyl-3-(2-methoxyphenyl)propylaminolethanol sulfate] the “Heart stimulating effect in relation” value (heart frequency; cat, in vivo, iv) was 0.26±0.04, the “Tremorogenic effect in relation” value [1] was 0.18 ±0.03 and the “Bronchospasmolytic effect in relation” value [3] was 0.25±0.05.
